Measurements published in US12371454B2, “Cyclic peptide compound having Kras inhibitory action” (priority 2019, dated 2025).
Starred links: 1 amine or outer side, 2 acyl side, 3 side chain; linkers in the order of their positions; H or OH if unused. Positions of bridges follow the written chain, without caps; N, C: chain ends. Non-standard residues stand in square brackets, D forms with d. Residues, ends and D or L forms follow the SMILES beside them. *: point of attachment. hPhe(3-Cl-4-CF3) = N[C@@H](CCc1ccc(C(F)(F)F)c(Cl)c1)C(=O)O; NMePhe(4-Me) = CN[C@@H](Cc1ccc(C)cc1)C(=O)O; NMedβ3hAla = C[C@H](CC(=O)[*:2])N(C)[*:1]; NMeCha = CN[C@@H](CC1CCCCC1)C(=O)O; NMehLeu = CN[C@@H](CCC(C)C)C(=O)O; Hyp = O=C(O)[C@@H]1C[C@@H](O)CN1; NMeAhp(2) = CCCCC[C@H](NC)C(=O)O; NMeChg = CN[C@H](C(=O)O)C1CCCCC1; NMeI = CC[C@H](C)[C@H](NC)C(=O)O; X61 = O=C(CN(CC1COC1)[*:1])[*:2]; NMeD = CN[C@@H](CC(=O)O)C(=O)O; NMeL = CN[C@@H](CC(C)C)C(=O)O; NMeNle = CCCC[C@H](NC)C(=O)O; NMeV = CN[C@H](C(=O)O)C(C)C; NMeS = CN[C@@H](CO)C(=O)O; Morpholide = C1CN(*)CCO1; NMeA = CN[C@@H](C)C(=O)O; Piperidide = C1CCN(*)CC1; Pyrrolidide = C1CCN(*)C1; Ac5c = NC1(C(=O)O)CCCC1; Aze = O=C(O)[C@@H]1CCN1; Sar = CNCC(=O)O; Propyl = CCC*

test system: Human pancreatic cancer cell line AsPC-1; test: Measurement of AsPC-1 cell growth inhibition (AsPC-1 CGI); assay type: cell-based; conditions: 96 h
How it was run: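 AsPC-1 cells in 15% FBS RPMI-1640 were exposed to test compound for 96 hours at 37° C, with CellTiter-Glo as endpoint.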

| Structure (SMILES) | IC50 [nM] |
| --- | --- |
| CC[C@H](C)[C@@H]1NC(=O)[C@H](CCC(C)C)N(C)C(=O)C[C@@H](C(=O)N2CCCCC2)N(C)C(=O)[C@H](C(C)C)N(C)C(=O)C2(CCCC2)NC(=O)[C@@H]2CCCN2C(=O)[C@H](CCc2ccc(C(F)(F)F)c(Cl)c2)NC(=O)CN(C)C(=O)[C@H](CC2CCCCC2)N(C)C(=O)[C@@H]2CCN2C(=O)[C@H](C)N(C)C1=O [Compound 1833] ([NMehLeu]I[NMeA][Aze][NMeCha][Sar][hPhe(3-Cl-4-CF3)]P[Ac5c][NMeV][NMeD]-Piperidide; lactam N-11) | 100 to 500 |
| CCO[C@@H]1C[C@H]2C(=O)NC3(CCCC3)C(=O)N(C)[C@@H](CC(C)C)C(=O)N(C)[C@H](C)CC(=O)N(C)[C@@H](CC(C)C)C(=O)N[C@@H]([C@@H](C)CC)C(=O)N(C)CC(=O)N(C)CC(=O)N(C)[C@@H](CC3CCCCC3)C(=O)N(C)CC(=O)N[C@@H](CCc3ccc(C(F)(F)F)c(Cl)c3)C(=O)N2C1 [Compound 1851] (cyclo([Ac5c][NMeL][NMedβ3hAla][NMeL]I[Sar][Sar][NMeCha][Sar][hPhe(3-Cl-4-CF3)][Hyp](Et))) | 20 to 50 |
| CC[C@H](C)[C@@H]1NC(=O)[C@H](CC(C)C)N(C)C(=O)C[C@@H](C(=O)N2CCCC2)N(C)C(=O)[C@H](C2CCCCC2)N(C)C(=O)C2(CCCC2)NC(=O)[C@@H]2CCCN2C(=O)[C@H](CCc2ccc(C(F)(F)F)c(Cl)c2)NC(=O)CN(C)C(=O)[C@H](Cc2ccc(C)cc2)N(C)C(=O)[C@@H]2CCN2C(=O)[C@H](C)N(C)C1=O [Compound 1852] ([NMeL]I[NMeA][Aze][NMePhe(4-Me)][Sar][hPhe(3-Cl-4-CF3)]P[Ac5c][NMeChg][NMeD]-Pyrrolidide; lactam N-11) | 20 to 50 |
| CCCCC[C@H]1C(=O)N(C)CC(=O)N[C@@H](CCc2ccc(C(F)(F)F)c(Cl)c2)C(=O)N2CCC[C@H]2C(=O)NC2(CCCC2)C(=O)N(C)[C@@H](C(C)C)C(=O)N(C)[C@H](C(=O)N2CCCCC2)CC(=O)N(C)[C@@H](CC(C)C)C(=O)N[C@@H]([C@@H](C)CC)C(=O)N(C)[C@@H](C)C(=O)N2CC[C@H]2C(=O)N1C [Compound 1854] ([NMeL]I[NMeA][Aze][NMeAhp(2)][Sar][hPhe(3-Cl-4-CF3)]P[Ac5c][NMeV][NMeD]-Piperidide; lactam N-11) | 100 to 500 |
| CCCC[C@H]1C(=O)N(C)[C@H](C(=O)N2CCCCC2)CC(=O)N(C)[C@@H](CC(C)C)C(=O)N[C@@H]([C@@H](C)CC)C(=O)N(C)[C@@H](C)C(=O)N2CC[C@H]2C(=O)N(C)[C@@H](CC2CCCCC2)C(=O)N(C)CC(=O)N[C@@H](CCc2ccc(C(F)(F)F)c(Cl)c2)C(=O)N2CCC[C@H]2C(=O)NC2(CCCC2)C(=O)N1C [Compound 1859] ([NMeL]I[NMeA][Aze][NMeCha][Sar][hPhe(3-Cl-4-CF3)]P[Ac5c][NMeNle][NMeD]-Piperidide; lactam N-11) | 100 to 500 |
| CC[C@H](C)[C@@H]1NC(=O)[C@H]([C@@H](C)CC)N(C)C(=O)C[C@@H](C(=O)N2CCCCC2)N(C)C(=O)[C@H](C(C)C)N(C)C(=O)C2(CCCC2)NC(=O)[C@@H]2CCCN2C(=O)[C@H](CCc2ccc(C(F)(F)F)c(Cl)c2)NC(=O)CN(C)C(=O)[C@H](CC2CCCCC2)N(C)C(=O)[C@@H]2CCN2C(=O)[C@H](C)N(C)C1=O [Compound 1863] ([NMeI]I[NMeA][Aze][NMeCha][Sar][hPhe(3-Cl-4-CF3)]P[Ac5c][NMeV][NMeD]-Piperidide; lactam N-11) | 100 to 500 |
| CC[C@H](C)[C@@H]1NC(=O)[C@H](CC(C)C)N(C)C(=O)C[C@@H](C(=O)N2CCCC2)N(C)C(=O)[C@H](C(C)C)N(C)C(=O)C2(CCCC2)NC(=O)[C@@H]2CCCN2C(=O)[C@H](CCc2ccc(C(F)(F)F)c(Cl)c2)NC(=O)CN(C)C(=O)[C@H](Cc2ccc(C)cc2)N(C)C(=O)[C@@H]2CCN2C(=O)[C@H](C)N(C)C1=O [Compound 1866] ([NMeL]I[NMeA][Aze][NMePhe(4-Me)][Sar][hPhe(3-Cl-4-CF3)]P[Ac5c][NMeV][NMeD]-Pyrrolidide; lactam N-11) | 100 to 500 |
| CCCOC[C@H]1C(=O)N(C)CC(=O)N[C@@H](CCc2ccc(C(F)(F)F)c(Cl)c2)C(=O)N2CCC[C@H]2C(=O)NC2(CCCC2)C(=O)N(C)[C@@H](C2CCCCC2)C(=O)N(C)[C@H](C(=O)N2CCOCC2)CC(=O)N(C)[C@@H](CC(C)C)C(=O)N[C@@H]([C@@H](C)CC)C(=O)N(C)CC(=O)N(C)CC(=O)N1C [Compound 1966] ([NMeL]I[Sar][Sar][NMeS](Propyl)[Sar][hPhe(3-Cl-4-CF3)]P[Ac5c][NMeChg][NMeD]-Morpholide; lactam N-11) | 50 to 100 |
| CC[C@H](C)[C@@H]1NC(=O)[C@H](CC(C)C)N(C)C(=O)C[C@@H](C(=O)N2CCCCC2)N(C)C(=O)[C@H](C2CCCCC2)N(C)C(=O)C2(CCCC2)NC(=O)CN(CC2COC2)C(=O)[C@H](CCc2ccc(C(F)(F)F)c(Cl)c2)NC(=O)CN(C)C(=O)[C@H](CC2CCCCC2)N(C)C(=O)CN(C)C(=O)CN(C)C1=O [Compound 2031] ([NMeL]I[Sar][Sar][NMeCha][Sar][hPhe(3-Cl-4-CF3)][X61][Ac5c][NMeChg][NMeD]-Piperidide; lactam N-11) | 100 to 500 |
